Results taken from ChEMBL document CHEMBL5661983, “The selective anaplastic lymphoma receptor tyrosine kinase inhibitor ASP3026 induces tumor regression and prolongs survival in non-small cell lung cancer model mice” (Mol Cancer Ther, 2014).
Active and inactive are the calls of the source. No cut-off for these calls is given here.

What was measured:
[1] = biological target: Hepatocyte growth factor receptor (Homo sapiens, UniProt P08581); assay: Inhibition of human N-terminal GST-fused MET cytoplasmic domain ([956 to 1390(end) residues) expressed in baculovirus expression system using Srctide as substrate measured after 1 hr by off-chip mobility shift assay relative to control
Chain of Hepatocyte growth factor receptor (P08581 whole entry, the tested form may be a part): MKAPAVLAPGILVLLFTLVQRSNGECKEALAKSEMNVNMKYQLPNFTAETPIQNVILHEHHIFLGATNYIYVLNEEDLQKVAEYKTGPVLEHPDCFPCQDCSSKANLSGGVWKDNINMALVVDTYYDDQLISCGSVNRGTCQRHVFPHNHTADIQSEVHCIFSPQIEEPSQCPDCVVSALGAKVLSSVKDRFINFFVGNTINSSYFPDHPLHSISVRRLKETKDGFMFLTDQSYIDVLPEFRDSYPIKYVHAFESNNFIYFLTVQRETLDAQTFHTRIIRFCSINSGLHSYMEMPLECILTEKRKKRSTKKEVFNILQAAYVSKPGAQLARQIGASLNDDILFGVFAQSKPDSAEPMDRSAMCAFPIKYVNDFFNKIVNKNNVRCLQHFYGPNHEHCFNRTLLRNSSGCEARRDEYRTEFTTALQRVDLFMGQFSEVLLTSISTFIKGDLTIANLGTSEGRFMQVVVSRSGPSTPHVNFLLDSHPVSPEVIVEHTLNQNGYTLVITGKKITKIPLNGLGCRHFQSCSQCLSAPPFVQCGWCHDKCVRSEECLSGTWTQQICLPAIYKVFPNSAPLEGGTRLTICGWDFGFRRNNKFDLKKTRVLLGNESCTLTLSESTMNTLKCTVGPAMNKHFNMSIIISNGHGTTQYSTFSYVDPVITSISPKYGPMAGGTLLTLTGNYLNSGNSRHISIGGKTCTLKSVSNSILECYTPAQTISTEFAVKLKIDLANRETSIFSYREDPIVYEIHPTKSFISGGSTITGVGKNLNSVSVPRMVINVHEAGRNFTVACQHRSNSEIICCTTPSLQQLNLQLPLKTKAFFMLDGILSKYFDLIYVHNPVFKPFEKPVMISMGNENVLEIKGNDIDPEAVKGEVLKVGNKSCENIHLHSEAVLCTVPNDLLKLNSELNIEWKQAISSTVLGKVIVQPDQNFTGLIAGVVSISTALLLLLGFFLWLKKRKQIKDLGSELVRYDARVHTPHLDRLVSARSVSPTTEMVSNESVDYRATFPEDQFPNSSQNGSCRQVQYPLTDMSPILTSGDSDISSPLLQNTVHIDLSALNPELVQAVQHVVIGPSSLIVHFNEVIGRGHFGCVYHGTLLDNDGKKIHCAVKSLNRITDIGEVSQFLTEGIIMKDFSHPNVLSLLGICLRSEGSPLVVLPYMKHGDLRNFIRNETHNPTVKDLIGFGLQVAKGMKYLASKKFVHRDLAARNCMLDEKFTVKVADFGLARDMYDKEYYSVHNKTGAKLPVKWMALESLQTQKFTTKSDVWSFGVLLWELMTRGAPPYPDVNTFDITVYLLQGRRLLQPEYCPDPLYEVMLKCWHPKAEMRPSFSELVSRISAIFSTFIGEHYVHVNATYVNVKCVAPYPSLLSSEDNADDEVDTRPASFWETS

NCI-H2228 [2] = assay: Antitumor activity against human NCI-H2228 cells xenografted in NOD.CB17-Prkdcscid/J mouse assessed as tumor growth inhibition at 30 mg/kg, po administered once daily for 2 weeks relative to control; assay type: functional; conditions: NCI-H2228, 336 h, read-out: TGI
[3] = Selectivity ratio of IC50 for EML4-ALK L1196M mutant (unknown origin) transformed in mouse BaF3 cells to IC50 for EML4-ALK (unknown origin) transformed in mouse BaF3 cells; parameters: species or system Homo sapiens; conditions: condition non-small cell lung carcinoma
[4] = In vivo inhibition of ALK autophosphorylation in human NCI-H2228 cell xenografted NOD.CB17-Prkdcscid/J mouse assessed as phosphorylated ALK level at 10 mg/kg, po administered as single dose measured after 4 hrs by immunoblotting method relative to control; assay type: functional; parameters: scale not given: the % may be the effect or the level left
EML4-ALK = EML4-ALK (Homo sapiens, UniProt Q9UM73, L1196M); assay type: cell-based, BaF3
Chain of EML4-ALK (Q9UM73 19-1620 L1196M limits assumed): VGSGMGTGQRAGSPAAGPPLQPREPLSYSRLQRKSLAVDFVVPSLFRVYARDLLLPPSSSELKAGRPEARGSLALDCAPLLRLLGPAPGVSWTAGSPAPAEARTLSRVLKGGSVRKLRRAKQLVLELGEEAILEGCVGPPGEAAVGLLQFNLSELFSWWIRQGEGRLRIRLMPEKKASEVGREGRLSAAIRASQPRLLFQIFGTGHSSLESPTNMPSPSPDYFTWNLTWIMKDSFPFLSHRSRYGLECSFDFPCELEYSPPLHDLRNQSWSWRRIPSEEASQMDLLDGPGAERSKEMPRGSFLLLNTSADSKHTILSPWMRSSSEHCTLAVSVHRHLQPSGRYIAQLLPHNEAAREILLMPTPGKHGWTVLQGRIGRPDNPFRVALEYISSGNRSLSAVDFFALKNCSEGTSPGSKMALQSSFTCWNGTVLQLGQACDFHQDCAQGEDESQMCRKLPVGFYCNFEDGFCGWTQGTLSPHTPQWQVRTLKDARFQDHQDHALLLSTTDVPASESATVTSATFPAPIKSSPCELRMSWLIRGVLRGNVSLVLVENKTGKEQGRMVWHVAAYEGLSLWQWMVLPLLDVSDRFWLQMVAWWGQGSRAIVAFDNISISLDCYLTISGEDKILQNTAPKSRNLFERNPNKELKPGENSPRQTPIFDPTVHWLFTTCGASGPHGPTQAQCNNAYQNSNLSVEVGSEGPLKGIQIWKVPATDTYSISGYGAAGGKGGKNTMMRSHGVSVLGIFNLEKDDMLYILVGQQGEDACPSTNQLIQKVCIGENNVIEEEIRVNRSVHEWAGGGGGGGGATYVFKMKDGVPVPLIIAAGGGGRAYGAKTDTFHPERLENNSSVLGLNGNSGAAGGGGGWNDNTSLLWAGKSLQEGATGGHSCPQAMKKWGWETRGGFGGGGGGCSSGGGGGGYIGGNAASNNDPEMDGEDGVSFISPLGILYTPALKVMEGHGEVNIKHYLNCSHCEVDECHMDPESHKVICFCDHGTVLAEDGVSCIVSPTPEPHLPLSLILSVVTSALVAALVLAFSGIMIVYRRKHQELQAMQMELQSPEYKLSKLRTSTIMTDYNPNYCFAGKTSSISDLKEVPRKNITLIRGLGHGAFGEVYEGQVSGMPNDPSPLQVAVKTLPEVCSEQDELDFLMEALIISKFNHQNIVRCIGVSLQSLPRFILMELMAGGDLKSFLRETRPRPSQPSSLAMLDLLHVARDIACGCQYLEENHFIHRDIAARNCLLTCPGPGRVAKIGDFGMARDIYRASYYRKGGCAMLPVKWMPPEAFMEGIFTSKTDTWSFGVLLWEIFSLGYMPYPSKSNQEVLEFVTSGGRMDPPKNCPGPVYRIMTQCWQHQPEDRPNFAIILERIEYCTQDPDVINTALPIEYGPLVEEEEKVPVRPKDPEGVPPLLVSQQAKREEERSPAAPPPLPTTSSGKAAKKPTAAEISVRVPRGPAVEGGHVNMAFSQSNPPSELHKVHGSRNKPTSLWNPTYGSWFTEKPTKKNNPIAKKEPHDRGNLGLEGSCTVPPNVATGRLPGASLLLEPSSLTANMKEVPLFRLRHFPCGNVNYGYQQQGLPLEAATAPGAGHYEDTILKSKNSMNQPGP

NCI-H2228 [5] = assay: Antitumor activity against human NCI-H2228 cells xenografted in NOD.CB17-Prkdcscid/J mouse assessed as tumor growth inhibition at 3 mg/kg, po administered once daily for 2 weeks relative to control; assay type: functional; conditions: NCI-H2228, 336 h, read-out: TGI
[6] = Ratio of Cmax in human NCI-H2228 cell xenografted NOD.CB17-Prkdcscid/J mouse tumor to plasma at 3 mg/kg/day for 5 days by HPLC-MS analysis; assay type: ADME, organism-based; conditions: tumor and plasma, route po, time 5 day
[7] = Ratio of Cmax in human NCI-H2228 cell xenografted NOD.CB17-Prkdcscid/J mouse tumor to plasma at 10 mg/kg/day for 5 days by HPLC-MS analysis; assay type: ADME, organism-based; conditions: tumor and plasma, route po, time 5 day
[8] = biological target: T1, ALK tyrosine kinase receptor (Homo sapiens, UniProt Q9UM73); assay: Inhibition of ALK in human NCI-H2228 cells assessed as reduction in AKT phosphorylation by measuring phosphorylated AKT level at 10 nmol/L measured after 4 hrs by Western blot analysis relative to control; assay type: cell-based; parameters: scale not given: the % may be the effect or the level left
T1 sequence (Q9UM73 19-1620 limits assumed): as the sequence (Q9UM73 19-1620 L1196M limits assumed) above, with M1178L counted along it

[9] = biological target: T1, ALK tyrosine kinase receptor; assay: Inhibition of ALK in human NCI-H2228 cells assessed as reduction in AKT phosphorylation by measuring phosphorylated AKT level at 100 nmol/L measured after 4 hrs by Western blot analysis relative to control; assay type: cell-based; parameters: scale not given: the % may be the effect or the level left
NCI-H2228-Luc = assay: Antitumor activity against human NCI-H2228-Luc cells intrahepatically xenografted in NOD.CB17-Prkdcscid/J mouse assessed as reduction in tumor burden by measuring bioluminescence emission at 30 mg/kg, po administered once daily for 3 weeks starting from 14 days post-cell inoculation and measured on day 19 by bioluminescent imaging analysis (reference value: 3.3 x 10^8 photon/sec); assay type: functional; conditions: time 19 day
NCI-H2228 [10] = assay: Antitumor activity against human NCI-H2228 cells xenografted in po dosed NOD.CB17-Prkdcscid/J mouse assessed as tumor growth inhibition administered once daily for 2 weeks; assay type: functional, organism-based; conditions: dose 1-30 mg/kg
NCI-H2228 [11] = assay: Potentiation of carboplatin-induced antitumor activity against human NCI-H2228 cells xenografted in NOD.CB17-Prkdcscid/J mouse assessed as reduction in tumor volume at 10 mg/kg, po administered once daily for 5 days; assay type: functional, organism-based; conditions: time 5.0 day
NCI-H2228 [12] = assay: Antitumor activity against human NCI-H2228 cells xenografted in NOD.CB17-Prkdcscid/J mouse assessed as tumor regression at 30 mg/kg, po administered once daily for 2 weeks relative to control; assay type: functional
[13] = biological target: T1, ALK tyrosine kinase receptor; assay: Inhibition of ALK in human NCI-H2228 cells assessed as reduction in STAT3 phosphorylation by measuring phosphorylated STAT3 level at 100 nmol/L measured after 4 hrs by Western blot analysis relative to control; assay type: cell-based; parameters: scale not given: the % may be the effect or the level left
NCI-H2228 [14] = assay: Potentiation of paclitaxel-induced antitumor activity against human NCI-H2228 cells xenografted in NOD.CB17-Prkdcscid/J mouse assessed as increase in tumor regression at 10 mg/kg, po administered once daily for 5 days; assay type: functional, organism-based; conditions: time 5.0 day
[15] = Toxicity in human NCI-H2228 cell xenografted NOD.CB17-Prkdcscid/J mouse assessed as change in body weight at 10 mg/kg, po administered once daily for 5 days in presence of paclitaxel; assay type: organism-based; conditions: in vivo, 120 h, time 5 day
[16] = biological target: Macrophage-stimulating protein receptor (Homo sapiens, UniProt Q04912)
Chain of Macrophage-stimulating protein receptor (Q04912 25-304 limits assumed): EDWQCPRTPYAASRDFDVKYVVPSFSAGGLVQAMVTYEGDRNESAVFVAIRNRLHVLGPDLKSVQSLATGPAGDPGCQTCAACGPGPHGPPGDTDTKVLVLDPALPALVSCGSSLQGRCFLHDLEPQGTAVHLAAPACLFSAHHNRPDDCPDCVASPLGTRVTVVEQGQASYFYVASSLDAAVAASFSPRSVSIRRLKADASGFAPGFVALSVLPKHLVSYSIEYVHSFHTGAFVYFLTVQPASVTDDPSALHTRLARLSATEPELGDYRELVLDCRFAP
Chain of Macrophage-stimulating protein receptor (Q04912 310-1400 limits assumed): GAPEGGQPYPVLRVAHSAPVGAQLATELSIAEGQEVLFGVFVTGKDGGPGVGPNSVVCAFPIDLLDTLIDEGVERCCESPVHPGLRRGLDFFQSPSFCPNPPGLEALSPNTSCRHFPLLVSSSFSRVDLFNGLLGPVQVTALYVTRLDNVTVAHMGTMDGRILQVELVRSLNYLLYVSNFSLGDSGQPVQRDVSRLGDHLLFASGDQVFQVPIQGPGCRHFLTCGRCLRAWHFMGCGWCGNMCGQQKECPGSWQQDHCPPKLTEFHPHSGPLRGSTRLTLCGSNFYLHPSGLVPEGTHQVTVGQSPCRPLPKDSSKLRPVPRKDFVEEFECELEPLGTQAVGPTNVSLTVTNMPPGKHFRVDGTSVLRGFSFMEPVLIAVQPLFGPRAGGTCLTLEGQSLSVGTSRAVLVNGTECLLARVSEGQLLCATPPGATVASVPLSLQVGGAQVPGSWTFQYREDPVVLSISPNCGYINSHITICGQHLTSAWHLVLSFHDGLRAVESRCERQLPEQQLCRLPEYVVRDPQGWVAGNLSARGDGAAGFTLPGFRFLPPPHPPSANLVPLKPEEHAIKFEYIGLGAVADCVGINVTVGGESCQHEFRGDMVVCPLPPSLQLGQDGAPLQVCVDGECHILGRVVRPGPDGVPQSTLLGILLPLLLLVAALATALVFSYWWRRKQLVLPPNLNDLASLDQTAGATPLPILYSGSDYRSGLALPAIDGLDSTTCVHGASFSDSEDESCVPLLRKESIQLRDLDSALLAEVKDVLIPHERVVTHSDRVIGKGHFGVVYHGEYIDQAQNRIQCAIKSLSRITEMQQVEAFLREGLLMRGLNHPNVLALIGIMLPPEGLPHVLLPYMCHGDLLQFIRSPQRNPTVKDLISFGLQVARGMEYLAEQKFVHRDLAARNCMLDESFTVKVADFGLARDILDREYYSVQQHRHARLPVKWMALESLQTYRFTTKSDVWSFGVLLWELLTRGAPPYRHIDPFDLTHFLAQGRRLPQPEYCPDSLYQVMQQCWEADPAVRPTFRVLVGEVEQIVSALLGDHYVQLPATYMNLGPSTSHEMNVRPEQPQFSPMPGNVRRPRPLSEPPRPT

[17] = biological target: Proto-oncogene tyrosine-protein kinase ROS (Homo sapiens, UniProt P08922)

SMILES: COc1cc(N2CCC(N3CCN(C)CC3)CC2)ccc1Nc1ncnc(Nc2ccccc2S(=O)(=O)C(C)C)n1 [ASP-3026]
- IC50 [1]: > 1000 nM
- inhibition in vivo at 30 mg/kg (NCI-H2228 [2]): > 100%
- Ratio IC50 [3]: 3.2
- Activity [4]: ~20%
- IC50 (EML4-ALK): 32 nM
- inhibition in vivo at 3 mg/kg (NCI-H2228 [5]): > 100%
- Kp at 120 h [6]: 16
- Kp at 120 h [7]: 18
- Activity [8]: 120%
- Activity [9]: 56%
- Activity (NCI-H2228-Luc): 7.7 10^6No_unit
- TGI (NCI-H2228 [10]): Dose-Dependent Effect
- Activity (NCI-H2228 [11]): inactive
- Activity (NCI-H2228 [12]): 78%
- Activity [13]: 52%
- Activity (NCI-H2228 [14]): Active
- Activity [15]: Non-Toxic
- IC50 [16]: > 1000 nM
- IC50 [17]: 8.9 nM
